Assay results from PubChem BioAssay (NCI).
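Five compound concentrations were applied to cells in 96-well plates for 48 hours; endpoints were derived by simple linear interpolation of the resulting dose-response curve. GI50: concentration for 50% inhibition of growth. Definition used: TGI = concentration required for complete inhibition of growth.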

Key:
Assay in all cases: growth of human tumour cells (NCI), 48 h
[1] = tested on: EKVX NSCLC
[2] = tested on: UACC-62 melanoma
[3] = tested on: NCI-H522 lung
[4] = tested on: PC-3 prostate
[5] = tested on: HCC-2998 colon
[6] = tested on: SK-MEL-2 melanoma
[7] = tested on: OVCAR-8 ovarian
[8] = tested on: NCI-H226 lung
[9] = tested on: HT29 colon
[10] = tested on: A549 NSCLC
[11] = tested on: OVCAR-3 ovarian
[12] = tested on: 786-0 renal
[13] = tested on: MCF7 breast
[14] = tested on: SNB-75 CNS
[15] = tested on: CAKI-1 renal
[16] = tested on: SK-OV-3 ovarian
[17] = tested on: RPMI-8226 leukemia
[18] = tested on: T-47D breast
[19] = tested on: K-562 leukemia
[20] = tested on: IGROV1 ovarian
[21] = tested on: SF-268 CNS
[22] = tested on: HL-60(TB) leukemia
[23] = tested on: SW-620 colon
[24] = tested on: HOP-92 NSCLC
[25] = tested on: UO-31 renal
[26] = tested on: OVCAR-4 ovarian
[27] = tested on: SF-539 CNS
[28] = tested on: UACC-257 melanoma

C=C(CN1C(=O)CN(C)C1=O)c1ccc(C(=O)Nc2ccccc2N)cc1
GI50 [1]: 82.3 µM
TGI [1]: > 100 µM
GI50 [2]: 9.31 µM
TGI [2]: 32.3 µM
GI50 [3]: 4.04 µM
TGI [3]: 36.2 µM
GI50 [4]: 12 µM
TGI [4]: > 100 µM
GI50 [5]: 22 µM
TGI [5]: 54.3 µM
GI50 [6]: 30.9 µM
TGI [6]: > 100 µM
GI50 [7]: 6.78 µM
TGI [7]: > 100 µM
GI50 [8]: 23.6 µM
TGI [8]: > 100 µM
GI50 [9]: 10.9 µM
TGI [9]: 41.5 µM
GI50 [10]: 25.4 µM
TGI [10]: > 100 µM
GI50 [11]: 24.8 µM
TGI [11]: > 100 µM
GI50 [12]: 30.1 µM
TGI [12]: > 100 µM
GI50 [13]: 12.7 µM
TGI [13]: > 100 µM
GI50 [14]: 5.87 µM
TGI [14]: 57.6 µM
GI50 [15]: 18.6 µM
TGI [15]: 58.7 µM
GI50 [16]: 1.64 µM
TGI [16]: 9.96 µM
GI50 [17]: 2.32 µM
TGI [17]: 14.8 µM
GI50 [18]: 2.55 µM
TGI [18]: 22.2 µM
GI50 [19]: 5.9 µM
TGI [19]: 74.5 µM
GI50 [20]: 12.3 µM
TGI [20]: > 100 µM
GI50 [21]: 11.5 µM
TGI [21]: > 100 µM
GI50 [22]: 4.93 µM
TGI [22]: 61.1 µM
GI50 [23]: 19.4 µM
TGI [23]: > 100 µM
GI50 [24]: 26.5 µM
TGI [24]: > 100 µM
GI50 [25]: 11.8 µM
TGI [25]: > 100 µM
GI50 [26]: 4.65 µM
TGI [26]: 35.8 µM
GI50 [27]: 36.2 µM
TGI [27]: > 100 µM
GI50 [28]: 5.89 µM
TGI [28]: 30.4 µM
